# Experimental data as given in patent US12605354B2, “Azelaic acid esters in the treatment or prevention of dyslipidemia and associated conditions” (NEW FRONTIER LABS, LLC, priority 2020, dated 2026).
# Marks after values point to notes of the source that are not given here.
# Experiments:
# [1] = test system: overweight to obese males; assay: 21-day oral DEA study: blood lipid levels and lipid ratios; assay type: in vivo, human; details: for LDL/triglycerides / LDL/HDL / Triglycerides/HDL / Non-cholesterol HDL/HDL / Cholesterol, total/HDL / HDL cholesterol / LDL cholesterol / Non-cholesterol HDL / Triglycerides / Cholesterol, total: D21 post-treatment, 21 daily oral doses of 1 mg/kg, mean; for decrease of LDL/HDL: p=0.02; for Cholesterol/HDL, decrease / LDL/HDL, decrease: significant effect
# Text: Seventeen subjects were recruited by sampling a large population at risk for T2D (according to convenience sample; a statistical method of drawing representative data) to measure the changes in glucose, lipid and insulin measurements after an OGTT after the subjects had been treated for 21 days.
# The subjects were overweight to obese males with body mass indices (BMIs) ranging from 27.2 to 43.6 kg/m^2, glycated hemoglobin A1c (HbA1c) of 5.0-6.2% and insulin levels of 8.8-52 μU/mL. The study was conducted by Clinical Trials of Texas, Inc. in San Antonio, TX. The cohort represented a population at risk for the development of T2D. The study was restricted to male participants to control for the variability of insulin sensitivity associated with the menstrual cycle. The subjects received 21 daily oral doses (“q1d”) of 1 mg/kg DEA. An OGTT, in which 75 grams of glucose in a total volume of 300 mL was administered orally to subjects, was performed on Day 0 and again on Day 21 and glucose measurements performed at −30, −5 and 0 min, insulin measurements at −30 and 0 min, and both glucose measurements and insulin measurements at 30, 60, 90, 120 and 180 minutes, where “0 min” is the time at which the glucose solution was administered. The 180-minute time point was selected to gain an early insight into the possible signal of drug action. Blood lipid levels (triglycerides, cholesterol, HDL, non-cholesterol HDL and LDL) were measured before the onset of treatment on Day 0 and again on Day 21. The error of the assays was <5% [36].
# The results of the various marker measurements at Day 0 and Day 21 were compared using both the paired Students T-test and the Wilcoxon signed rank test. The results of both calculations are provided; the p-value from the paired Student T-test first, followed by the p-value from the Wilcoxon signed rank test. Generalized Estimating Equations and bootstrapping were used to verify the results generated with other methods. Fasting glucose was calculated as the average of the −30, −5, and 0-minute measurements and fasting insulin was calculated as the average of the −30- and 0-minute measurements. Spearman's correlation coefficient was calculated for the relationship between A1c and pre-treatment fasting plasma glucose versus post-treatment fasting plasma glucose. Area under the curve (AUC) was calculated over the 180-minute time span of the OGTT. All analyses were performed using the open language engine R 3.4.4. Statistical significance was at the α=0.05 level.
# [2] = test system: subject, with diet induced insulin resistance and diabetes; assay: Example 2: fasting blood lipids after buccal or gastric delivery of DEA; assay type: in vivo, human; details: for TC, triglyceride, and Calc LDL levels and TC/HDL ratio: all tested dosages vs 0 mg/kg
# Text: Described in this example is an evaluation of the effects of alkyl azelates, such as DEA, on certain markers of insulin resistance and dyslipidemia, namely, blood plasma glucose, insulin levels and/or lipid levels, when administered either for buccal delivery or for gastric delivery in a subject, with diet induced insulin resistance and diabetes with a BMI of approximately 27.
# Diethyl azelate was synthesized from azelaic acid and ethyl alcohol sing the standard acid-catalyzed esterification followed by fractional distillation to produce DEA to 99% purity as determined by chromatography-mass spectrometry (GC-MS). The 99% distilled DEA distillation product was administered in unformulated, unencapsulated, etc. form (i.e., “as is”) for buccal delivery as indicated below.
# For gastric delivery, the 99% DEA distillation product was placed in a hard gelatin capsule, size 00 (PureCaps USA, Philmont, NY) and administered for gastric delivery by swallowing with a drink of water.
# Fasting blood levels of cholesterol, high density lipoprotein (HDL) cholesterol, and triglycerides were measured using Lipid Panel PTS test strips and CardioChek P-A test system (Polymer Technology Systems, Inc., Indianapolis, IN) according to the manufacturer's instructions.
# [3] = buccal delivery, 0.5, 1, 2, 4 mg/kg vs 0 mg/kg, FIG. 8, greatest lowering at 0.5 mg/kg
compound,measurement,setting,value
"CCOC(=O)CCCCCCCC(=O)OCC [DEA, diethyl azelate]","HDL, increase","[1]; 21-day study, group not stated",8.7% increase
same,LDL/triglycerides,"[1]; All (n = 17), D0 0.998",0.893
same,LDL/HDL,"[1]; All (n = 17), D0 3.442, P < 0.05",3.201*
same,Triglycerides/HDL,"[1]; All (n = 17), D0 3.761",3.907
same,Non-cholesterol HDL/HDL,"[1]; All (n = 17), D0 3.799, P < 0.05",3.549*
same,"Cholesterol, total/HDL","[1]; All (n = 17), D0 4.806, P < 0.05",4.553*
same,HDL cholesterol,"[1]; All (n = 17), D0 32.765",34.412 mg/dL
same,LDL cholesterol,"[1]; All (n = 17), D0 93.765",89.765 mg/dL
same,Non-cholesterol HDL,"[1]; All (n = 17), D0 117.412",114.471 mg/dL
same,Triglycerides,"[1]; All (n = 17), D0 118.588",124 mg/dL
same,"Cholesterol, total","[1]; All (n = 17), D0 150.118",148.882 mg/dL
same,LDL/triglycerides,"[1]; FPG <100 mg/dL (n = 8), D0 0.861",0.887
same,LDL/HDL,"[1]; FPG <100 mg/dL (n = 8), D0 3.082",2.892
same,Non-cholesterol HDL/HDL,"[1]; FPG <100 mg/dL (n = 8), D0 3.309",3.098
same,Triglycerides/HDL,"[1]; FPG <100 mg/dL (n = 8), D0 3.693",3.521
same,"Cholesterol, total/HDL","[1]; FPG <100 mg/dL (n = 8), D0 4.311",4.089
same,HDL cholesterol,"[1]; FPG <100 mg/dL (n = 8), D0 31.25",31.5 mg/dL
same,LDL cholesterol,"[1]; FPG <100 mg/dL (n = 8), D0 101",90.75 mg/dL
same,Non-cholesterol HDL,"[1]; FPG <100 mg/dL (n = 8), D0 111.778",114.333 mg/dL
same,Triglycerides,"[1]; FPG <100 mg/dL (n = 8), D0 122.889",127.667 mg/dL
same,"Cholesterol, total","[1]; FPG <100 mg/dL (n = 8), D0 154.875",146.125 mg/dL
same,LDL/triglycerides,"[1]; FPG >100 mg/dL (n = 9), D0 1.152",0.9
same,Triglycerides/HDL,"[1]; FPG >100 mg/dL (n = 9), D0 3.837",4.342
same,LDL/HDL,"[1]; FPG >100 mg/dL (n = 9), D0 3.847",3.549
same,Non-cholesterol HDL/HDL,"[1]; FPG >100 mg/dL (n = 9), D0 4.349",4.057
same,"Cholesterol, total/HDL","[1]; FPG >100 mg/dL (n = 9), D0 5.362",5.075
same,HDL cholesterol,"[1]; FPG >100 mg/dL (n = 9), D0 34.111",37 mg/dL
same,LDL cholesterol,"[1]; FPG >100 mg/dL (n = 9), D0 105",103.444 mg/dL
same,Triglycerides,"[1]; FPG >100 mg/dL (n = 9), D0 113.75",119.875 mg/dL
same,Non-cholesterol HDL,"[1]; FPG >100 mg/dL (n = 9), D0 123.75",114.625 mg/dL
same,"Cholesterol, total","[1]; FPG >100 mg/dL (n = 9), D0 145.889",151.333 mg/dL
same,LDL/triglycerides,"[1]; High A1c (n = 9), D0 0.954",0.972
same,LDL/HDL,"[1]; High A1c (n = 9), D0 3.173, P < 0.01",2.862**
same,Non-cholesterol HDL/HDL,"[1]; High A1c (n = 9), D0 3.446",3.108
same,Triglycerides/HDL,"[1]; High A1c (n = 9), D0 3.481",3.096
same,"Cholesterol, total/HDL","[1]; High A1c (n = 9), D0 4.456, P < 0.05",4.1*
same,HDL cholesterol,"[1]; High A1c (n = 9), D0 37.889",41.222 mg/dL
same,LDL cholesterol,"[1]; High A1c (n = 9), D0 105",103.444 mg/dL
same,Triglycerides,"[1]; High A1c (n = 9), D0 129",125.222 mg/dL
same,Non-cholesterol HDL,"[1]; High A1c (n = 9), D0 130.667",128.444 mg/dL
same,"Cholesterol, total","[1]; High A1c (n = 9), D0 168.444",169.667 mg/dL
same,LDL/triglycerides,"[1]; Low A1c (n = 8), D0 1.048",0.804
same,LDL/HDL,"[1]; Low A1c (n = 8), D0 3.744",3.582
same,Triglycerides/HDL,"[1]; Low A1c (n = 8), D0 4.076",4.82
same,Non-cholesterol HDL/HDL,"[1]; Low A1c (n = 8), D0 4.196",4.046
same,"Cholesterol, total/HDL","[1]; Low A1c (n = 8), D0 5.2",5.062
same,HDL cholesterol,"[1]; Low A1c (n = 8), D0 27",26.75 mg/dL
same,LDL cholesterol,"[1]; Low A1c (n = 8), D0 81.125",74.375 mg/dL
same,Non-cholesterol HDL,"[1]; Low A1c (n = 8), D0 102.5",98.75 mg/dL
same,Triglycerides,"[1]; Low A1c (n = 8), D0 106.875",122.625 mg/dL
same,"Cholesterol, total","[1]; Low A1c (n = 8), D0 129.5",125.5 mg/dL
same,"LDL, decrease",[1]; all,4.3%
same,decrease of LDL/HDL,"[1]; all 17 subjects, p=0.011",6.46%
same,HDL and non-cholesterol HDL,[1]; all subjects,non-significantly affected by the treatment
same,"Cholesterol/HDL, decrease",[1]; all,5.4%
same,"LDL/HDL, decrease",[1]; all,6.5%
same,"effect on total cholesterol, LDL, HDL, non-cholesterol HDL, and triglycerides considered singly",[1]; entire cohort,did not exert statistically significant effects on any endpoint considered singly
same,decrease of the ratio of total cholesterol/HDL,"[1]; entire cohort, p=0.025, p=0.041",5.36%
same,decrease of non-cholesterol HDL/HDL ratio,"[1]; entire cohort, p=0.025, p=0.057",6.6%
same,"LDL, decrease",[1]; high A1c,2%
same,decrease of median total cholesterol,[1]; high A1c group,1 mg/dL
same,decrease of the ratio of triglycerides/HDL,[1]; high A1c group,11%
same,ratio of triglycerides/HDL post-treatment,"[1]; high A1c group, from 3.4",3.0
same,LDL trend,"[1]; high A1c group, less so in the low A1c group, normal <100 mg/dL",decreasing trend toward normal values
same,decrease of the ratio of total cholesterol/HDL,"[1]; high A1c group, p=0.017, p=0.068",7.99%
same,decrease of non-cholesterol HDL/HDL ratio,"[1]; high A1c group, p=0.025, p=0.074",9.8%
same,decrease of LDL/HDL,"[1]; high A1c subjects, 21-day study (3 weeks), p=0.008",9.8%
same,"Cholesterol/HDL, decrease",[1]; high A1c,8%
same,"LDL/HDL, decrease",[1]; high A1c,9.8%
same,elevated triglycerides post-treatment,[1]; including two high A1c subjects with abnormal triglycerides >150 before treatment,decreased post-treatment to normal levels in 8 subjects
same,increase of the ratio of triglycerides/HDL,[1]; low A1c,15%
same,increase of median total cholesterol,[1]; low A1c group,9 mg/dL
same,ratio of triglycerides/HDL post-treatment,"[1]; low A1c, from 3.9",4.6
same,abnormal total cholesterol (>200 mg/dL) post-treatment,[1]; two subjects in the high A1c group,decreased or returned to normal levels
same,"improvement in total cholesterol and TC/HDL ratio, buccal relative to gastric delivery","[2]; FIG. 17, T test",statistically significant greater improvement
same,HDL levels,"[2]; buccal delivery, 0.5, 1, 2, 4 mg/kg vs 0 mg/kg, FIG. 8",increased at all DEA doses tested
same,Triglycerides,[2]; [3],lowered
same,calculated LDL,[2]; [3],lowered
same,total cholesterol,[2]; [3],lowered
same,HDL levels,"[2]; buccal delivery, all dosages vs 0 mg/kg, FIG. 15","elevated (i.e., improved)"
same,TC/HDL ratio,"[2]; buccal delivery, all tested amounts 0.5-4 mg/kg vs no DEA, FIG. 9, lowered the most with 0.5 mg/kg","lowered (i.e., improved) TC/HDL ratio"
same,"TC, triglyceride, and Calc LDL levels and TC/HDL ratio","[2]; buccal delivery, FIG. 15, more pronounced at 1 mg/kg","lowered (i.e., improved)"
same,HDL levels,"[2]; gastric delivery, all dosages vs 0 mg/kg, FIG. 15","elevated (i.e., improved)"
same,"TC, triglyceride, and Calc LDL levels and TC/HDL ratio","[2]; gastric delivery, FIG. 15, more pronounced at 0.25 mg/kg","lowered (i.e., improved)"
